Where “and” joins values, the source holds several entries; their conditions need not be identical. Equal values may be shown once. Toxic doses and inconclusive results are not listed. How the source made its calls: active means survival T/C of 150% or more; inactive means T/C below 125% in these data.
Tested on: CD2F1 mice, L1210 leukemia ip, survival T/C
Assay: NCI In Vivo Anticancer Drug Screen. Data for tumor model L1210 Leukemia (intraperitoneal) in CD2F1 (CDF1) mice
Settings: higher = longer survival
How it was run: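 Each value reflects a quotient of treated over vehicle control outcomes in mice with a transplanted tumor.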

[1] = endpoint: mean survival time, dose: 100.0 mg/kg/injection, schedule: Q04DX003 (ip), vehicle: saline
[2] = endpoint: mean survival time, dose: 100.0 mg/kg/injection, schedule: Q01DX001 (ip), vehicle: saline
[3] = endpoint: mean survival time, dose: 200.0 mg/kg/injection, schedule: Q01DX001 (ip), vehicle: saline
[4] = endpoint: mean survival time, dose: 100.0 mg/kg/injection, schedule: Q01DX009 (ip), vehicle: saline with Tween-80
[5] = endpoint: mean survival time, dose: 200.0 mg/kg/injection, schedule: Q01DX009 (ip), vehicle: saline with Tween-80
[6] = endpoint: mean survival time, dose: 400.0 mg/kg/injection, schedule: Q01DX009 (ip), vehicle: saline with Tween-80

Measured: T/C

CCn1c(C)[n+](CC)c2ccc(C(C)=O)cc21
inactive: endpoint: mean survival time, dose: 25.0 mg/kg/injection, schedule: Q04DX003 (ip), vehicle: saline 104 % of control | endpoint: mean survival time, dose: 50.0 mg/kg/injection, schedule: Q04DX003 (ip), vehicle: saline 108 % of control | [1] 106 % of control

Nc1nc(=O)n(CCCOc2ccc(Cl)cc2)cc1-c1ccccc1
inactive: endpoint: mean survival time, dose: 100.0 mg/kg/injection, schedule: Q01DX001 (ip), vehicle: saline with Tween-80 98 % of control | endpoint: mean survival time, dose: 200.0 mg/kg/injection, schedule: Q01DX001 (ip), vehicle: saline with Tween-80 101 % of control | endpoint: mean survival time, dose: 400.0 mg/kg/injection, schedule: Q01DX001 (ip), vehicle: saline with Tween-80 88 % of control

Nn1cnnc1
inactive: [2] 98 % of control | [3] 93 % of control

CC1/C(=N\Nc2ccc([N+](=O)[O-])cc2[N+](=O)[O-])CCC2C1(C)CCC1C2(C)CCC2(C)C3CC(C)(C)CCC3(C)CCC12C (configuration not stated)
inactive: [2] 97 % of control | [3] 97 % of control | endpoint: mean survival time, dose: 400.0 mg/kg/injection, schedule: Q01DX001 (ip), vehicle: saline 97 % of control

CC(C)CCCC(C)C1CCC2C3CC(CO)C4CC(O)CCC4(C)C3CCC12C (configuration not stated)
inactive: endpoint: mean survival time, dose: 100.0 mg/kg/injection, schedule: Q04DX003 (ip), vehicle: saline with Tween-80 87 % of control | endpoint: mean survival time, dose: 200.0 mg/kg/injection, schedule: Q04DX003 (ip), vehicle: saline with Tween-80 88 % of control

C[n+]1ccc(/C(=N\O)c2ccccc2)cc1
inactive: endpoint: mean survival time, dose: 37.5 mg/kg/injection, schedule: Q04DX003 (ip), vehicle: saline 100 % of control | endpoint: mean survival time, dose: 75.0 mg/kg/injection, schedule: Q01DX001 (ip), vehicle: saline 101 % of control | endpoint: mean survival time, dose: 75.0 mg/kg/injection, schedule: Q04DX003 (ip), vehicle: saline 100 % of control | endpoint: mean survival time, dose: 150.0 mg/kg/injection, schedule: Q01DX001 (ip), vehicle: saline 97 % of control | endpoint: mean survival time, dose: 150.0 mg/kg/injection, schedule: Q04DX003 (ip), vehicle: saline 95 % of control

N#CC(/C=C/c1ccccc1)Nc1ccccc1N (configuration not stated)
inactive: [4] 98 % of control | [5] 95 % of control | [6] 93 % of control

CC(C)(C)SC1C(O)C(CO)OC1n1ccc(N)nc1=O (configuration not stated)
inactive: endpoint: median survival time, dose: 12.5 mg/kg/injection, schedule: Q01DX005 (ip), vehicle: saline 103 % of control | endpoint: median survival time, dose: 25.0 mg/kg/injection, schedule: Q01DX005 (ip), vehicle: saline 96 % of control | endpoint: median survival time, dose: 50.0 mg/kg/injection, schedule: Q01DX005 (ip), vehicle: saline 103 % of control | endpoint: median survival time, dose: 100.0 mg/kg/injection, schedule: Q01DX005 (ip), vehicle: saline 108 % of control | endpoint: median survival time, dose: 200.0 mg/kg/injection, schedule: Q01DX005 (ip), vehicle: saline 103 % of control

OC1C2COC(O2)C(O)C1O (configuration not stated)
inactive: endpoint: mean survival time, dose: 100.0 mg/kg/injection, schedule: Q01DX009 (ip), vehicle: saline 98 % of control | endpoint: mean survival time, dose: 200.0 mg/kg/injection, schedule: Q01DX009 (ip), vehicle: saline 101 % of control | endpoint: mean survival time, dose: 400.0 mg/kg/injection, schedule: Q01DX009 (ip), vehicle: saline 98 % of control

CC(C)OC(=O)N(C(=O)OC(C)C)c1ccc(F)cc1
inactive: endpoint: mean survival time, dose: 100.0 mg/kg/injection, schedule: Q04DX002 (ip), vehicle: saline with Tween-80 91 % of control | endpoint: mean survival time, dose: 200.0 mg/kg/injection, schedule: Q04DX002 (ip), vehicle: saline with Tween-80 97 % of control | endpoint: mean survival time, dose: 400.0 mg/kg/injection, schedule: Q04DX002 (ip), vehicle: saline with Tween-80 94 % of control

NC(=O)c1cn(C2OC(CO)C(O)C2O)c2nc(N)nc(N)c2c1=O (configuration not stated)
inactive: endpoint: mean survival time, dose: 12.5 mg/kg/injection, schedule: Q01DX005 (ip), vehicle: water 104 % of control | endpoint: mean survival time, dose: 25.0 mg/kg/injection, schedule: Q01DX005 (ip), vehicle: water 104 % of control | endpoint: mean survival time, dose: 50.0 mg/kg/injection, schedule: Q01DX005 (ip), vehicle: water 104 % of control | endpoint: mean survival time, dose: 100.0 mg/kg/injection, schedule: Q01DX005 (ip), vehicle: water 124 % of control | endpoint: median survival time, dose: 50.0 mg/kg/injection, schedule: Q01DX005 (ip), vehicle: saline with Tween-80 103 % of control and 107 % of control | endpoint: median survival time, dose: 100.0 mg/kg/injection, schedule: Q01DX005 (ip), vehicle: saline with Tween-80 105 % of control and 110 % of control | endpoint: median survival time, dose: 200.0 mg/kg/injection, schedule: Q01DX005 (ip), vehicle: saline with Tween-80 115 % of control and 106 % of control | endpoint: median survival time, dose: 400.0 mg/kg/injection, schedule: Q01DX005 (ip), vehicle: saline with Tween-80 117 % of control

CCOC(=O)Nc1cc(NC(c2ccc(Cl)cc2)c2ccc(Cl)cc2)c2[nH]cnc2n1
inactive: endpoint: mean survival time, dose: 75.0 mg/kg/injection, schedule: Q01DX001 (ip), vehicle: other 117 % of control

CCC1(CC)CO1
inactive: [4] 104 % of control | [1] 96 % of control | [5] 93 % of control | endpoint: mean survival time, dose: 200.0 mg/kg/injection, schedule: Q04DX003 (ip), vehicle: saline 94 % of control | [6] 97 % of control | endpoint: mean survival time, dose: 400.0 mg/kg/injection, schedule: Q04DX003 (ip), vehicle: saline 98 % of control
